The target of one assay is MKK3 (Homo sapiens, UniProt P46734). Description: MKK3 kinase activity (data not shown). It is filed as biochemical. The settings on record: at concentration inhibiting greater than 95% of MK2 activity. The source says: A commercial radiometric assay service was used to test the specificity and potency of MMI-0100 ([…]; SEQ ID NO: 1) by measuring its half maximal inhibitory concentrations (IC50). This quantitative assay measures how much MK2 inhibitor (MMI-0100; […] (SEQ ID NO: 1)) is needed to inhibit 50% of a given biological process or component of a process (i.e., an enzyme, cell, or cell receptor). Specifically, in these assays, a positively charged substrate is phosphorylated with a radiolabeled phosphate group from an ATP if the kinase is not inhibited by an inhibitor peptide. The positively charged substrate then is attracted to a negatively charged filter membrane, quantified with a scintillation counter, and compared to a 100% activity control. ATP concentrations within 15 μM of the apparent Km for ATP were chosen since an ATP concentration near the Km may allow for the kinases to have the same relative amount of phosphorylation activity. […]
MKK3, sequence (P46734 whole entry, species assumed): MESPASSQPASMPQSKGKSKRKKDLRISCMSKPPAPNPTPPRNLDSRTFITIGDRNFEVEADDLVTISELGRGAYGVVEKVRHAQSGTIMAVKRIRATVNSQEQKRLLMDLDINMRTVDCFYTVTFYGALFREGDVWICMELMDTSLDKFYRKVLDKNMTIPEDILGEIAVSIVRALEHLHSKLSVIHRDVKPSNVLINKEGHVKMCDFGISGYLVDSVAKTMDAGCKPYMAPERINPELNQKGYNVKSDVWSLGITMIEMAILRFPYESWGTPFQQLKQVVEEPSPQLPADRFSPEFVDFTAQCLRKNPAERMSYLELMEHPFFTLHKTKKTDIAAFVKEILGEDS
IC50 values for inhibitor peptides were determined using Millipore's IC50 Profiler Express service. […]
In order to determine the level of specificity for inhibiting MK2, the effect of MMI-0100 ([…]; SEQ ID NO: 1) on other kinases within the MAPK family and within the p38MAPK pathway was evaluated at concentrations of MMI-0100 ([…]; SEQ ID NO: 1) that inhibit greater than 95% of MK2 activity in vitro. […]

Assay [1] concerns human coronary artery endothelial cells (HCAEC). Put plainly: IL-6 and IL-8 ELISA in TNF-α-stimulated HCAEC. It is filed as cell-based. The settings on record: 0.5 mM, 24 hours after 6 hour TNF-α. On the procedure:
Primary human coronary artery endothelial cells (HCAEC) were cultured and seeded onto a 96-well plate, using methods described in the MTS proliferation assay above. Cells were again stimulated with 20 ng/ml of TNF-α for 6 hours and then treated with MMI-0100 (SEQ ID NO: 1) for approximately 24 hours. Supernatants were then collected and analyzed for drug effect on inflammatory cytokines.
IL-6 (Cat #: 900-K16; Lot #: 0909016) and IL-8 (Cat #: 900-K18; Lot #: 0209018) ELISA kits (Peprotech; Rocky Hill, N.J.) were used to measure levels of these cytokines from HCAEC supernatants following treatment with MMI-0100 ([…]; SEQ ID NO: 1). The Human IL-6 ELISA development kit contains the key components required for the quantitative measurement of natural and/or recombinant hIL-6 in a sandwich ELISA format within the range of 32-2000 pg/ml. Human IL-8 ELISA development kit contains the key components required for the quantitative measurement of natural and/or recombinant hIL-8 in a sandwich ELISA format within the range of 16-1000 pg/ml. […]
Briefly, 10 μl of supernatant was diluted with 90 μl of diluents; 3 replicates of each sample were used. Data were collected at 405 nm with correction at 650 nm on a plate reader. Each plate was monitored for 1 hour with readings taken every 5 minutes. Concentrations of IL-6 and IL-8 in test samples were determined by extrapolating from a standard curve. […]

Entries after “also recorded” stand apart in the source; their conditions may differ.

As to YARAAARQARAKALARQLGVAA [MMI-0100], on MKK3, the MKK3 activity entry is “no reduction”. Also, in assay [1], the “TNF-α-induced IL-6 expression” value is on record as “reduced the level of TNF-α-induced IL-6 expression to that of the untreated control” and the “TNF-α-induced IL-8 expression” value is “did not affect the level of TNF-α-induced IL-8 expression; also recorded: no effect”.

Source of the values: patent US20110288036A1, “Methods for Treating or Preventing Vascular Graft Failure” (priority 2010, published 2011).
